The test has as its system H929 MM cells. Put plainly: H929 MM cell lysis with TCB alone or combined with lenalidomide, anti-PD-1 or daratumumab (co-culture with human leukocytes, flow cytometry). The following applies: H929 cells + leucocytes of Donor 1, 48 h. Type of test: cell-based. The text has this:
FIGS. 21A-21B. Redirected T-cell lysis of H929 MM cells induced by anti-BCMA/anti-CD3 T-cell bispecific antibodies in combination with thalidomide derivatives (lenalidomide) or immunotherapeutic derivatives (anti-PD1 and anti-CD38 antibodies) as measured by flow cytometry. H929 MM cells were co-cultured with human leukocytes (n=1 or 5) and challenged to suboptimal concentrations of anti-BCMA/anti-CD3 T-cell bispecific antibody 83A10-TCcv (10 pM) (FIG. 21A) or 42-TCBcv (10 pM) (FIG. 21B) alone, in combination with suboptimal concentrations of lenalidomide (1 μM), anti-PD-1 (10 μg/ml) and anti-CD38 daratumumab (10 μg/ml).
Anti-BCMA/anti-CD3 T-cell bispecific antibody (namely 83A10-TCBcv or 42-TCBcv) was combined with three drugs representing different types of immunotherapy: lenalidomide, anti-PD-1 antibody and anti-CD38 antibody daratumumab. H929 MM cells were co-cultured with human leukocytes from healthy donors (n=1 or 5) in RPMI-1640 medium supplemented with 10% FBS, 0.5% gentamincin and 1% L-Glutamine at 37° C. in a humidified 5% CO2 incubator and challenged to suboptimal concentrations of 83A10-TCBcv (10 pM) (n=5) or 42-TCBcv (10 pM) (n=1) alone, or in combination with lenalidomide (1 μM), anti-PD-1 antibody (10 μg/ml) and anti-CD38 antibody daratumumab (10 μg/ml). […] FIG. 21B and Table 28 show the percentage of MM cell lysis when H929 cells and leucocytes from one healthy donor were exposed to 42-TCBcv (10 pM) combined with lenalidomide (1 μM), anti-PD-1 antibody (10 μg/ml) and anti-CD38 antibody daratumumab (10 μg/ml) for 48 h of culture.

[1] abbreviates: with TCB (combination with 42-TCBcv).

Take `Nc1cccc2c1CN(C1CCC(=O)NC1=O)C2=O` (stereo not shown) [lenalidomide]: the MM cell lysis was 13.27% under setting [1] and −1.78% (without TCB).
“Daratumumab: anti-CD38 antibody (US20150246123)”: the MM cell lysis is, setting by setting: under setting [1], 42.29%; (without TCB) 33.06%.

The record behind these values is US20220002427A1, “BISPECIFIC ANTIBODY AGAINST BCMA AND CD3 AND AN IMMUNOLOGICAL DRUG FOR COMBINED USE IN TREATING MULTIPLE MYELOMA” (ENGMAB SARL, priority 2016, published 2022).
